# Measured values published in US10703765B2 (priority 2014, dated 2020).
# pKi: −log10 of the molar value. Counter-ions that a name gives are not always drawn. Like-named read-outs stand apart in the source and are kept apart here.
# Biological target: human σ1 receptor (Homo sapiens, UniProt Q99720)
# Test: biochemical
# Assay type: binding
# Set-up: μ and σ1 dual binding: key to the marks not given beside the values
# [1] = read-out: μ and σ1 dual binding
# Sequence of human σ1 receptor (Q99720 whole entry): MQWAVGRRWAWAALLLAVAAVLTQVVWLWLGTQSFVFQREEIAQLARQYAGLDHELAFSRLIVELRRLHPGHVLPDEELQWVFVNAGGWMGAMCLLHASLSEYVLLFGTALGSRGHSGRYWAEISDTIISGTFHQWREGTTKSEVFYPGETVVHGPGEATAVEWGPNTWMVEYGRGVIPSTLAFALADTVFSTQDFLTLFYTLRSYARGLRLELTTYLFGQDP
Compound,pKi [1],also measured
"CC1OC2(CCN(CCc3cncc(F)c3)CC2)CN(c2ccccc2)C1=O (stereo not shown) [Example 114, 9-(2-(5-fluoropyridin-3-yl)ethyl)-2-methyl-4-phenyl-1-oxa-4,9-diazaspiro[5.5]undecan-3-one hydrochloride]",–,pKi: > 6.30
"CC1OC2(CCN(CCc3cncc(Cl)c3)CC2)CN(c2ccccc2)C1=O (stereo not shown) [Example 115, 9-(2-(5-chloropyridin-3-yl)ethyl)-2-methyl-4-phenyl-1-oxa-4,9-diazaspiro[5.5]undecan-3-one hydrochloride]",–,pKi: > 6.30
"CC1OC2(CCN(CCn3nccc3NC(=O)OC(C)(C)C)CC2)CN(c2ccccc2)C1=O (stereo not shown) [Example 116, tert-butyl (1-(2-(2-methyl-3-oxo-4-phenyl-1-oxa-4,9-diazaspiro[5.5]undecan-9-yl)ethyl)-1H-pyrazol-5-yl)carbamate]",< 6.30,–
"CC(C)C1OC2(CCN(CCc3csc(NC(=O)OC(C)(C)C)n3)CC2)CN(c2ccccc2F)C1=O (stereo not shown) [Example 117, tert-butyl (4-(2-(4-(2-fluorophenyl)-2-isopropyl-3-oxo-1-oxa-4,9-diazaspiro[5.5]undecan-9-yl)ethyl)thiazol-2-yl)carbamate]",< 6.30,–
"CC(C)(C)OC(=O)Nc1nc(CCN2CCC3(CC2)CN(c2ccccc2)C(=O)C2(CC2)O3)cs1 [Example 118, tert-butyl (4-(2-(13-oxo-12-phenyl-4-oxa-8,12-diazadispiro[2.1.5.3]tridecan-8-yl)ethyl)thiazol-2-yl)carbamate]",< 6.30,–
"O=C1N(Cc2ccc(C(F)(F)F)cn2)CC2(CCN(CCc3cccc([N+](=O)[O-])c3)CC2)OC12CC2 [Example 119, 8-(3-nitrophenethyl)-12-{[5-(trifluoromethyl)pyridin-2-yl]methyl}-4-oxa-8,12-diazadispiro[2.1.5.3]tridecan-13-one]",< 6.30,–
"CC(C)(C)OC(=O)Nc1nc(CCN2CCC3(CC2)CN(Cc2ccc(C(F)(F)F)cn2)C(=O)C2(CC2)O3)cs1 [Example 120, tert-butyl (4-(2-(13-oxo-12-{[5-(trifluoromethyl)pyridin-2-yl]methyl}-4-oxa-8,12-diazadispiro[2.1.5.3]tridecan-8-yl)ethyl)thiazol-2-yl)carbamate]",< 6.30,–
"CC1OC2(CCN(CCc3csc(NC(=O)OC(C)(C)C)n3)CC2)CN(c2cnccc2C(F)(F)F)C1=O (stereo not shown) [Example 121, tert-butyl (4-(2-(2-methyl-3-oxo-4-(4-(trifluoromethyl)pyridin-3-yl)-1-oxa-4,9-diazaspiro[5.5]undecan-9-yl)ethyl)thiazol-2-yl)carbamate]",< 6.30,–
"CC(C)OCCN1CCC2(CC1)CN(c1ccccc1)C(=O)C(C)O2 (stereo not shown) [Example 122, 9-(2-isopropoxyethyl)-2-methyl-4-phenyl-1-oxa-4,9-diazaspiro[5.5]undecan-3-one]",< 6.30,–
"CC1OC2(CCN(CCc3cccc(C#N)n3)CC2)CN(c2ccccc2)C1=O.Cl (stereo not shown) [Example 123, 6-(2-(2-methyl-3-oxo-4-phenyl-1-oxa-4,9-diazaspiro[5.5]undecan-9-yl)ethyl)picolinonitrile hydrochloride]",–,μ and σ1 dual binding: ++
"CC1OC2(CCN(CC(=O)N3CCOCC3)CC2)CN(Cc2ccc(C(F)(F)F)cn2)C1=O (stereo not shown) [Example 124, 2-methyl-9-(2-morpholino-2-oxoethyl)-4-((5-(trifluoromethyl)pyridin-2-yl)methyl)-1-oxa-4,9-diazaspiro[5.5]undecan-3-one hydrochloride]",< 6.30,–
"CC(C)OCCN1CCC2(CC1)CN(Cc1ccc(C(F)(F)F)cn1)C(=O)C(C)O2 (stereo not shown) [Example 125, 9-(2-isopropoxyethyl)-2-methyl-4-((5-(trifluoromethyl)pyridin-2-yl)methyl)-1-oxa-4,9-diazaspiro[5.5]undecan-3-one]",–,"μ and σ1 dual binding (combined class from Ki-σ1 (human σ1 receptor, A1) and Ki-μ (human μ-opioid receptor, A2) radioligand binding): ++"
"CC1OC2(CCN(CCc3ccccc3F)CC2)CN(c2cnccc2C(F)(F)F)C1=O (stereo not shown) [Example 126, 9-(2-fluorophenethyl)-2-methyl-4-(4-(trifluoromethyl)pyridin-3-yl)-1-oxa-4,9-diazaspiro[5.5]undecan-3-one hydrochloride]",> 7.00,–
